Measured values reported in patent US11331368B2, “Angiotensin receptor agonists and uses thereof” (Monash University, priority 2017, dated 2022).

Tests used:
[1] = system: human cardiac fibroblasts; test: TGF-β1-induced collagen production in human cardiac fibroblasts (Western blot); assay type: cell-based; conditions: co-treated with TGF-β1 for 3 days, increasing concentrations up to 1 μM
Description: D) Human cardiac fibroblasts (HCFs) were treated with TGFβ1 to induce a pro-fibrotic phenotype state in cell culture, exemplified by increased collagen-1 production, measured by Western blot. HCFs were treated with TGFβ1 alone, or in the presence of an AT2R agonist for 3 days, and the ability of AT2R agonists to inhibit TGFβ1-induced collagen-1 production was measured.
Commercially available human cardiac fibroblasts (HCF, Catalog #6300, Sciencell, Calif., USA) were grown in T75 flask maintained in an incubator at 37° C., 5% CO2. Complete media composition: M199 media (#11150-059, life technologies)+10% FBS (#10437-028, life technologies)+1% Fibroblast Growth Supplement-2 (#2382, ScienCell)+1% penicillin/streptomycin 10,000 U/ml antibiotics (#15140-122, Life Technologies). Fresh complete media was replenished every alternate day until culture reached 70% confluence in which media is replenished daily until it reached approximately 90% confluence in order to passage/subculture. To subculture, media was discarded and culture was rinsed with warm PBS. After which, culture was detached using warm 0.05% Trypsin+EDTA with gentle swirling of flask to make sure cells were not adherent to surface of flask. Trypsin was then neutralized with complete media and suspension was then transferred into a new falcon tube and centrifuged at 1000 rpm for 5 minutes. Supernatant was discarded and pellet of cells were resuspended with 5 ml of complete media, followed by cell counting. For subculturing/passaging, 1 million HCFs are placed into a T75 flask. For Picrosirius Red (PSR) staining or immunofluorescence experiments, 100 k cells were loaded per well in a 24 well plate lined with round coverslips. […]
Once treatment is complete, cells were washed with warm PBS and detached using Accutase (A6964, Sigma), with 5 minutes incubation at 37° C. […] The supernatant (˜20 ul) was transferred to a new tube and protein concentrations were measured using Biorad Lowry protein assay. Protein quantification of respective markers were performed via standard western blot analysis. […]

human AT1R = biological target: T1, human AT1R (Homo sapiens, UniProt P30556); test: Competition radioligand binding (125I-Sar1-Ile8-AngII) in AT1R-transfected HEK-293 cells
T1 construct: expressed in transfected cells
T1 sequence (P30556 1-359): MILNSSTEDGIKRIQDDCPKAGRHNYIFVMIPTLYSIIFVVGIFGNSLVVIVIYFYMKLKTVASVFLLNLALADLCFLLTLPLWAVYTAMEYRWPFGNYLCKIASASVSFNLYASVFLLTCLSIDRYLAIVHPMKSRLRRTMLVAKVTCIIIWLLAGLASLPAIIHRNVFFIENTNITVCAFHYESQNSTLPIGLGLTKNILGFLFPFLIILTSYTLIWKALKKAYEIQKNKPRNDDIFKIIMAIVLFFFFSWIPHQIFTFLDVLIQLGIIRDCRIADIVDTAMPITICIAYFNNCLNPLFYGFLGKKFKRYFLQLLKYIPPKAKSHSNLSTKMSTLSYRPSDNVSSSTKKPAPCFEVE
Description: This will lead to the generation of IC50 values that determine the relative ability of test compounds to interact with both Angiotensin receptors.
Cells were grown to approximately 80% confluence before being re-plated into 48 well plates at 1×10^5 cells/well and grown for 48 hours at 37° C. for a whole cell competition binding assay. [125I]-Sar1Ile8Ang II at 50,000 cpm, incubated for 45 minutes at 37° C., in the absence or presence of unlabeled ligands, prepared in binding buffer (DMEM, 0.1% BSA), were used in the competition assays at concentrations ranging from 1 μM to 10 μM. For each experiment, each ligand concentration was tested in duplicate or triplicate, and each experiment was repeated at least 3 separate times. […] The ability of each ligand to inhibit specific binding of [125I]-Sar1Ile8Ang II was measured on a gamma counter with all counts corrected for NSB.

human AT2R = biological target: T2, human AT2R (Homo sapiens, UniProt P50052); test: Competition radioligand binding (125I-Sar1-Ile8-AngII) in AT2R-transfected HEK-293 cells; conditions: for Fold AT2R selectivity: AT2R over AT1R, Table 3; for binding at AT2R (displacement of 125I-Sar1-Ile8-AngII), in words: transfected HEK-293 cells
T2 construct: expressed in transfected cells
T2 sequence (P50052 1-363): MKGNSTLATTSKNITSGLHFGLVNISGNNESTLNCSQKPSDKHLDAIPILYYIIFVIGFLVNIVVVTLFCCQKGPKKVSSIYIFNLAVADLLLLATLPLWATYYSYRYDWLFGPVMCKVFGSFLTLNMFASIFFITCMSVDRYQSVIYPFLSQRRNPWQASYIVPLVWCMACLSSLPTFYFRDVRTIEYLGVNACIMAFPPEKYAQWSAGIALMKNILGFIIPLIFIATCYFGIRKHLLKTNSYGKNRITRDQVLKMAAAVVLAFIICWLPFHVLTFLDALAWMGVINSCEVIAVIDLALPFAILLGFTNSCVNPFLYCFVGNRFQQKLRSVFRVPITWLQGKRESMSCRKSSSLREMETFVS

[2] = system: male FVB/N mice on high salt diet, heart; test: High salt (5%) diet intervention model, heart; assay type: in vivo, mouse; conditions: for cardiac fibrosis by hydroxyproline analysis (LV collagen content) / cardiac oxidative stress (DHE staining) / myofibroblast differentiation in heart (α-SMA): 75 pmol/kg/min s.c.; for cardiac fibrosis by hydroxyproline analysis (LV collagen content) / cardiac oxidative stress (DHE staining) / myofibroblast differentiation in heart (α-SMA) / expression of P-IκBα (marker for NFκB activation) in heart: weeks 5-8; for expression of P-IκBα (marker for NFκB activation) in heart: peptides 75 pmol/kg/min s.c., captopril 3 mg/kg/day; for expression of P-IκBα (marker for NFκB activation) in heart / cardiac fibrosis (picrosirius red): Cand 2 mg/kg/day; for cardiac fibrosis (picrosirius red): weeks 5-8 of high salt diet, peptides 75 pmol/kg/min s.c. mini-pump, captopril 3 mg/kg/day in drinking water
Description: (§1) C) In the intervention (or reversal) model, male FVB/N mice were treated with selective AT2Rs agonists after the establishment of cardiovascular disease using a high salt diet, in order to reverse cardiovascular pathologies. In some experiments, the ACE inhibitor captopril (dose) or the ARB candesartan cilexetil (dose) were given for 4 weeks in drinking water. Organs examined included heart, kidney and liver and these were compared to either untreated mice or high salt-fed mice that were treated with saline.
A high-salt diet (5% salt) model is a clinically relevant and disease-reversal model which can replicate the high salt intake by humans which is currently a growing problem in the developed countries. High salt intake induces changes in the cardiovascular system and induces remodelling and fibrosis in the heart, kidney and liver.
(§2) Mice were placed on either a normal rodent diet (0.35% NaCl) which acted as control or a high salt diet (5% sodium in food chow) for 8 weeks. After 4 weeks, mice were also treated subcutaneously (via osmotic mini-pump) with either saline or an AT2R agonist (75 pmol/kg/min subcutaneously) for 4 weeks. Mice continued to be fed a high salt diet whilst receiving these treatments.
All mice which underwent surgery were anaesthetized with Isoflurane (Isorrane) (5% induction and 2.5% maintenance) and an incision made in the midscapular region through which osmotic minipumps (Alzet model 2004, Alza Corp) were inserted for subcutaneous drug administration. The incision area was sutured with 6/0 DY silk (Dynek Pty Ltd) and antibiotic powder applied (Cicatrin, Pfizer) followed by intramuscular injection of the analgesic Cartrophen (0.1 ml of a 1.5 mg/ml stock solution; Biopharm Australia). Systolic blood pressure (SBP) was measured using non-invasive tail-cuff plethysmography apparatus (MC4000 Blood Pressure Analysis System, Hatteras Instrument Inc) before drug treatment (week 0), and then fortnightly. At the end of the 8 week treatment period mice were weighed before being killed by overdose of isoflurane inhalation and cervical dislocation.
(§3) To measure collagen deposition, frozen sections of heart, kidney or aorta (all 5 μm thickness) were air dried for 10 minutes and were brought through 3 times xylene (2 minutes each), and 3 times absolute alcohol washes before being rinsed in tap H2O for 30 seconds. Staining with an optimal concentration of picrosirius red (in this instance 0.05% picrosirius red diluted in saturated picric acid) was performed and left for an hour. Sections were then rinsed in water and differentiated in 0.01M HCl for 2 minutes, followed by dehydration via 3 times absolute alcohol washes. Then, slides were brought through 3 times xylene washes before being cover slipped according to standard histological techniques using DPX as the mounting medium. Images were taken under ×20 magnification, using bright field (Olympus, BX51) and circularized polarized light microscopy (DM IRB, Leica) while percentage of positive interstitial collagen staining per total field of view was quantified using ImageJ 1.46 software (Java, NIH), and averaged out from a total of eight views as the final percentage collagen content in a particular animal.
Immunostaining was performed on 5 μm thick transverse frozen heart sections. These sections were air dried and fixed in ice-cold acetone for approximately 15 minutes before washing with 0.01M PBS buffer (3×10 minutes). Sections were then incubated with 10% goat serum in 0.01M PBS for 30 minutes to reduce non-specific binding. If the primary antibody is raised in goat, this pre-blocked medium is substituted with 5% BSA in PBS and Triton-X. Next, blocking buffers were removed and the primary antibody to respective markers were applied overnight at room temperature based on the following dilution and origin of the antibodies: α-SMA (1:500, Abcam), Vimentin (1:500, Santa Cruz), P-IκBα (1:200, Cell Signalling), F4/80 macrophage (1:100, Serotec). […]

[3] = system: male FVB/N mice on high salt diet, kidney; test: High salt (5%) diet intervention model, kidney; assay type: in vivo, mouse; conditions: 75 pmol/kg/min s.c., weeks 5-8
Description: as §1, §2, §3
Kidney sections used either picrosirius red staining as described above or using Mason's Trichrome staining as described below.
Formalin fixed, paraffin embedded kidneys were sectioned at thickness of 4 μm and were stained with Masson's trichrome according to standard procedures for analysis of kidney fibrosis. […] Sections were re-fixed in Bouin's solution for 1 hour at 56° C. to improve staining quality then rinsed in running tap water for 5-10 minutes to remove yellow colour. Following this, sections were stained in Weigert's iron hematoxylin working solution for 10 minutes. Rinsed in running warm tap water for 10 minutes. Washed in distilled water. Stained in Biebrich scarlet-acid fuchsin solution for 10-15 minutes. Washed in distilled water. Differentiated in phosphomolybdic-phosphotungstic acid solution for 10-15 minutes or until collagen was no longer red. Sections were transferred directly (without rinse) to aniline blue solution and stained for 5-10 minutes. Rinsed briefly in distilled water and differentiated in 1% acetic acid solution for 2-5 minutes. Washed in distilled water. […] Mounted with DPX mounting medium.
Quantification of kidney fibrosis was performed using images captured with the Aperio scanner (Monash Histology Platform, Monash University), with ×5 magnification. Each kidney section had 5 different fields of view photographed at this magnification. Percentage of tubulointerstitial collagen was analysed and quantified using ImageJ 1.48 software (Java, NIH), and the percentage from 5 random fields of view were averaged for final percentage of collagen for that particular animal. All analysis of collagen expression was conducted in a blinded fashion.

[4] = system: male FVB/N mice on high salt diet, kidney; test: High salt (5%) diet intervention model, kidney; assay type: in vivo, mouse; conditions: 75 pmol/kg/min s.c., weeks 5-8; remark: listed apart in the source

Molecule | TGF-β1-induced collagen production [1] | binding at AT1R (displacement of 125I-Sar1-Ile8-AngII), in words (human AT1R) | Fold AT2R selectivity (human AT2R) | AT2R/AT1R selectivity ratio (human AT2R; approximate or conservatively estimated, listed as β-Pro^7-Trp^8-Ang III) | binding at AT2R (displacement of 125I-Sar1-Ile8-AngII), in words (human AT2R) | cardiac fibrosis by hydroxyproline analysis (LV collagen content) [2] | cardiac oxidative stress (DHE staining) [2] | myofibroblast differentiation in heart (α-SMA) [2] | expression of P-IκBα (marker for NFκB activation) in heart [2] | cardiac fibrosis (picrosirius red) [2] | kidney glomerular fibrosis (picrosirius red) [3] | kidney tubulointerstitial fibrosis (picrosirius red) [3] | macrophage infiltration in kidney (F4/80) [4] | renal fibrosis by hydroxyproline analysis [4] | renal inflammation (phospho-IκBα expression) [4]
CC[C@H](C)[C@H](NC(=O)[C@H](Cc1ccc(O)cc1)NC(=O)[C@@H](NC(=O)C[C@H](CCCNC(=N)N)NC(=O)[C@@H](N)CC(=O)O)C(C)C)C(=O)N[C@@H](Cc1c[nH]cn1)C(=O)N1CCC[C@H]1C(=O)N[C@@H](Cc1ccccc1)C(=O)O [βArg-Ang II, Asp-β-Arg-Val-Tyr-Ile-His-Pro-Phe] | inhibited the TGF-β1-mediated pro-fibrotic phenotype |  |  |  |  |  |  |  |  |  |  |  |  |  | 
Arg-Val-Tyr-Ile-His-β-Pro-Trp [βPro-Trβ-8-Ang III] |  | bind poorly | >400,000 fold | > 400,000 fold | high affinity | reversed the pro-fibrotic effects of high salt in the heart | reversed the oxidative stress effects of high salt in the heart | reversed myofibroblast differentiation | reversed | reversed cardiac fibrosis | reversed the glomerular fibrosis caused by high salt in the kidney | reversed the tubulointerstitial fibrosis caused by high salt in the kidney | reversed high salt-induced macrophage infiltration in the kidney | reversed the pro-fibrotic effects of high salt in the kidney | reversed high salt-induced renal inflammation in the kidney
D-Arg-Val-Tyr-Ile-His-β-Pro-Trp [D-Arg-βPro-Trp-8-Ang III] |  | bind poorly | >18,000 fold |  | high affinity | reversed the pro-fibrotic effects of high salt in the heart | reversed the oxidative stress effects of high salt in the heart | reversed myofibroblast differentiation | reversed | reversed cardiac fibrosis | reversed the glomerular fibrosis caused by high salt in the kidney | reversed the tubulointerstitial fibrosis caused by high salt in the kidney | reversed high salt-induced macrophage infiltration in the kidney | reversed the pro-fibrotic effects of high salt in the kidney | reversed high salt-induced renal inflammation in the kidney
